Measured values published in patent US20240398812A1 (Caraway Therapeutics, Inc., priority 2021, published 2024).

Experiments:
Format in all cases: cell-based
human TRPML1 = human TRPML1 (Homo sapiens, UniProt Q9GZU1); test: Fluorescent TRPML1 assay (Fluo4-AM calcium fluorescence, HEK-293 Trex cells)
In short: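 Tet-inducible HEK-293 Trex cells stably expressing surface-targeted mutant human TRPML1, induced with 0.5 ug/mL doxycycline overnight, loaded with Fluo4-AM and suspended in Ringer's with 10 mM calcium. Compounds tested from 20 μM to 6 nM final, half-log steps, in triplicate; fluorescence (ex 480/em 540) normalised to plate controls, EC50 by non-linear regression.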

TRPML2 = biological target: T1, TRPML2 (Homo sapiens, UniProt Q8IZK6); test: Fluorescent TRPML2 assay (as for TRPML1)
T1 construct: expressed in transfected cells
T1 sequence (Q8IZK6 1-566): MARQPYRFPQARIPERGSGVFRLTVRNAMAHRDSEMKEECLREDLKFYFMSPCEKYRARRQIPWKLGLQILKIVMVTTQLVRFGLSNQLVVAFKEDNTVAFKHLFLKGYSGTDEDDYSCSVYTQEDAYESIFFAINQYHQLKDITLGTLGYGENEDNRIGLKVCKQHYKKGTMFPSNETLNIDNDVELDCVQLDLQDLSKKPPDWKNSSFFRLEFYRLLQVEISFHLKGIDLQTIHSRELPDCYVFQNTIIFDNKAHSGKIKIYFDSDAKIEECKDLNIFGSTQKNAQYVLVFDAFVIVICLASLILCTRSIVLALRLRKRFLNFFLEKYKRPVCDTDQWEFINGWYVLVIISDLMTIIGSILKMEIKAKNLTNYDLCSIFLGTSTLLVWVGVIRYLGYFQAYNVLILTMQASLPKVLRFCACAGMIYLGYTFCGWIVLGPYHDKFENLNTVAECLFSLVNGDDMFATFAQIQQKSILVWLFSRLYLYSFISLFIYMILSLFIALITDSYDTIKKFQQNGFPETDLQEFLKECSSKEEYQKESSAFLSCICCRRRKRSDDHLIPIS
In short: (§1)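 HEK-293 Trex cells with tet-inducible (0.5 ug/mL doxycycline, overnight) surface-targeted mutant channel, Fluo4-AM loaded, suspended in Ringer's with 10 mM calcium. Compounds tested 20 µM to 6 nM final, half-log steps, triplicate; fluorescence at ex 480/em 540 nm. EC50 by non-linear regression of percent activity versus plate controls.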

TRPML3 = biological target: T2, TRPML3 (Homo sapiens, UniProt Q8TDD5); test: Fluorescent TRPML3 assay (as for TRPML1)
T2 construct: expressed in transfected cells
T2 sequence (Q8TDD5 1-553): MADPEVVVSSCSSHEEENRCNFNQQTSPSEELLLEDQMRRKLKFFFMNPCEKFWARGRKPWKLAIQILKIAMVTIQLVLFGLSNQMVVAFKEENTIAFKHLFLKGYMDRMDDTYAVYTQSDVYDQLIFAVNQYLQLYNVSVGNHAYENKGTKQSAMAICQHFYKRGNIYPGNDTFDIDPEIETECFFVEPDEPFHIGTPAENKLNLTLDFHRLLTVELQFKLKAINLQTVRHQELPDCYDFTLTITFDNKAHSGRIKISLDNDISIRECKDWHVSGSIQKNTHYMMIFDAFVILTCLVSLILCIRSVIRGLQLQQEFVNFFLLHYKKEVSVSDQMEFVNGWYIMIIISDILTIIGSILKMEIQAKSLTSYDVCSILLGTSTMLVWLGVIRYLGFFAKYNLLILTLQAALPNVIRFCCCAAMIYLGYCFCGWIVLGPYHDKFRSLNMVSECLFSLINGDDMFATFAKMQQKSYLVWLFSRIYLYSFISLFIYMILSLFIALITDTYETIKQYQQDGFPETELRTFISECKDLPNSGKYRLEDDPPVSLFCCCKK
In short: as §1

Sequence of human TRPML1 (Q9GZU1 whole entry L15A/L16A/L577A/L578A, form open): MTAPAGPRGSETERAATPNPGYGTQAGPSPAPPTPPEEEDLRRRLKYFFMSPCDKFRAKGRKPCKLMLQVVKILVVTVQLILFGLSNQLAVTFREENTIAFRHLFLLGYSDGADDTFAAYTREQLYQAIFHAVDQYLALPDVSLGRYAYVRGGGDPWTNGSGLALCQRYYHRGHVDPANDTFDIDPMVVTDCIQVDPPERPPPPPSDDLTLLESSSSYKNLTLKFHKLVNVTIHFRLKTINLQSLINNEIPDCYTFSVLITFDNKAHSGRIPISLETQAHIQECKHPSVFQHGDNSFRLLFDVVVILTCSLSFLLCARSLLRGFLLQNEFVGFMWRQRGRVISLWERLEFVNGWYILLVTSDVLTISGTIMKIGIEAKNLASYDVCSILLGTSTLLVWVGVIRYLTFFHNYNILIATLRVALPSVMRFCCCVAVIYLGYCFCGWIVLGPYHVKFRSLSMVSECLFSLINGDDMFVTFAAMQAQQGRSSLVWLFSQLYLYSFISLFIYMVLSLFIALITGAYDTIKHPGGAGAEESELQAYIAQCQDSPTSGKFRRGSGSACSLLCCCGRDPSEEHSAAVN

SMILES | EC50 (human TRPML1; Table 3, compounds 201-283) [nM] | EC50 (TRPML2; Table 3, compounds 201-283) [nM] | EC50 (TRPML3; Table 3, compounds 201-283) [nM] | EC50 (human TRPML1; Table 3, compounds 101-177) [nM] | EC50 (TRPML2; Table 3, compounds 101-177) [nM] | EC50 (TRPML3; Table 3, compounds 101-177) [nM]
C[C@H]1CN(C(=O)C2(F)CC2)CCN1c1ncnc2c1c(N1CCCC1)cn2-c1cccc(Cl)c1 [Compound 278, (S)-(4-(7-(3-chlorophenyl)-5-(pyrrolidin-1-yl)-7H-pyrrolo[2,3-d]pyrimidin-4-yl)-3-methylpiperazin-1-yl)(1-fluorocyclopropyl)methanone] | < 100 | 100 to 500 | 100 to 500 |  |  | 
C[C@@H]1CN(c2ncnc3c2c(N2CCC2)cn3-c2cc(C#N)ccn2)[C@@H](C)CN1C(=O)C(C)(C)C [Compound 276, 2-(5-(azetidin-1-yl)-4-((2S,5R)-2,5-dimethyl-4-pivaloylpiperazin-1-yl)-7H-pyrrolo[2,3-d]pyrimidin-7-yl)isonicotinonitrile] | < 100 | 100 to 500 | < 100 |  |  | 
C[C@H]1CN(C(=O)[C@@H](F)C(C)(C)C)CCN1c1ncnc2c1c(C1CC1)cn2-c1cc(C#N)ccn1 (single isomer, unassigned) [Compound 203] | < 100 | < 100 | < 100 |  |  | 
COC(C)(C)C(=O)N1C[C@H](C)N(c2ncnc3c2c(-c2ccccc2)cn3-c2cc(C#N)ccn2)C[C@H]1C [Compound 282, 2-(4-((2S,5R)-4-(2-methoxy-2-methylpropanoyl)-2,5-dimethylpiperazin-1-yl)-5-phenyl-7H-pyrrolo[2,3-d]pyrimidin-7-yl)isonicotinonitrile] | < 100 | < 100 | < 100 |  |  | 
CC(C)C(=O)N1CCN(c2ncnc3c2c(N2CCCC2)cn3-c2cc(C#N)ccn2)[C@@H](C)C1 [Compound 144, (S)-2-(4-(4-isobutyryl-2-methylpiperazin-1-yl)-5-(pyrrolidin-1-yl)-7H-pyrrolo[2,3-d]pyrimidin-7-yl)isonicotinonitrile] |  |  |  | < 100 | 100 to 500 | 100 to 500

Next, values leading:

EC50 (human TRPML1; Table 3, compounds 201-283) [nM] | EC50 (TRPML2; Table 3, compounds 201-283) [nM] | EC50 (TRPML3; Table 3, compounds 201-283) [nM] | EC50 (human TRPML1; Table 3, compounds 101-177) [nM] | EC50 (TRPML2; Table 3, compounds 101-177) [nM] | EC50 (TRPML3; Table 3, compounds 101-177) [nM] | SMILES
 |  |  | < 100 | 100 to 500 | < 100 | CC(C)C(=O)N1CCN(c2ncnc3c2c(-c2ccccc2F)cn3-c2cc(C#N)ccn2)C[C@H]1C [Compound 107, (R)-2-(5-(2-fluorophenyl)-4-(4-isobutyryl-3-methylpiperazin-1-yl)-7H-pyrrolo[2,3-d]pyrimidin-7-yl)isonicotinonitrile]
100 to 500 | 500 to 2000 | < 100 |  |  |  | C[C@@H]1CN(c2ncnc3c2c(C2CCC2)cn3-c2cccc(C(F)(F)F)c2)[C@@H](C)CN1C(=O)C(C)(C)C(F)(F)F [Compound 263, 1-((2R,5S)-4-(5-cyclobutyl-7-(3-(trifluoromethyl)phenyl)-7H-pyrrolo[2,3-d]pyrimidin-4-yl)-2,5-dimethylpiperazin-1-yl)-3,3,3-trifluoro-2,2-dimethylpropan-1-one]
< 100 | 500 to 2000 | < 100 |  |  |  | COC(C)(C)C(=O)N1C[C@H](C)N(c2ncnc3c2c(N2CCC2)cn3-c2cc(C#N)ccn2)C[C@H]1C [Compound 268, 2-(5-(azetidin-1-yl)-4-((2S,5R)-4-(2-methoxy-2-methylpropanoyl)-2,5-dimethylpiperazin-1-yl)-7H-pyrrolo[2,3-d]pyrimidin-7-yl)isonicotinonitrile]
100 to 500 | 500 to 2000 | 100 to 500 |  |  |  | C[C@@H]1CN(c2ncnc3c2c(C2CCC2)cn3-c2cccc(F)c2)[C@@H](C)CN1C(=O)CC(C)(C)C(F)(F)F [Compound 251, 1-((2R,5S)-4-(5-cyclobutyl-7-(3-fluorophenyl)-7H-pyrrolo[2,3-d]pyrimidin-4-yl)-2,5-dimethylpiperazin-1-yl)-4,4,4-trifluoro-3,3-dimethylbutan-1-one]
 |  |  | < 100 | 100 to 500 | < 100 | CC(C)C(=O)N1CCN(c2ncnc3c2c(-c2ccccc2F)cn3-c2cc(C#N)ccn2)C2(CC2)C1 [Compound 155, 2-(5-(2-fluorophenyl)-4-(7-isobutyryl-4,7-diazaspiro[2.5]octan-4-yl)-7H-pyrrolo[2,3-d]pyrimidin-7-yl)isonicotinonitrile]
